Data as given in PubChem BioAssay (NCI).
Several values for one entry are separate records, joined by “and”; a condition that tells them apart may be missing. Equal entries are not always repeated.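 Protocol summary: plate cells (96-well), add compound at 5 concentrations, incubate 48 h, interpolate endpoints linearly. GI50 marks 50% less growth. TGI marks complete inhibition of growth.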

Columns and labels:
Assay in all cases: NCI tumour cell line growth inhibition, 48 h
ACHN renal = system: ACHN renal
BT-549 breast = system: BT-549 breast
EKVX NSCLC = system: EKVX NSCLC
HCT-116 colon = system: HCT-116 colon
HS 578T breast = system: HS 578T breast
HT29 colon = system: HT29 colon
MOLT-4 leukemia = system: MOLT-4 leukemia
SNB-75 CNS = system: SNB-75 CNS
TK-10 renal = system: TK-10 renal
UACC-62 melanoma = system: UACC-62 melanoma

| Structure (SMILES) | GI50 (ACHN renal) | TGI (ACHN renal) | GI50 (BT-549 breast) | TGI (BT-549 breast) | GI50 (EKVX NSCLC) | TGI (EKVX NSCLC) | GI50 (HCT-116 colon) | TGI (HCT-116 colon) | GI50 (HS 578T breast) | TGI (HS 578T breast) | GI50 (HT29 colon) | TGI (HT29 colon) | GI50 (MOLT-4 leukemia) | TGI (MOLT-4 leukemia) | GI50 (SNB-75 CNS) | TGI (SNB-75 CNS) | GI50 (TK-10 renal) | TGI (TK-10 renal) | GI50 (UACC-62 melanoma) | TGI (UACC-62 melanoma) |
| --- | --- | --- | --- | --- | --- | --- | --- | --- | --- | --- | --- | --- | --- | --- | --- | --- | --- | --- | --- | --- |
| C[C@H](c1ccc(Cl)cc1[N+](=O)[O-])N1C(=O)c2cc(I)ccc2NC(=O)[C@H]1c1ccc(Cl)cc1 | > 100 µM | > 100 µM | > 100 µM | > 100 µM | 4.98 µM | > 100 µM | 5.78 µM | > 100 µM | 6.5 µM | > 100 µM | > 100 µM | > 100 µM | 8.76 µM | > 100 µM | > 100 µM | > 100 µM | > 100 µM | > 100 µM | > 100 µM | > 100 µM |
| CN(C)c1ccc(/C=N/NC(=O)c2cnc3ccccc3c2)cc1 |  | > 100 µM |  | > 100 µM |  | > 100 µM |  | > 100 µM |  | 63.5 µM |  |  |  |  |  | 50.6 µM |  | > 100 µM |  | > 100 µM |
| CCC(=O)Oc1ccc(/C=N/NC(N)=S)nc1 | 1.01 µM | 21 µM | 11.9 µM | > 100 µM | 43.7 µM | > 100 µM | 4.46 µM | > 100 µM | 30.9 µM | > 100 µM | 19.3 µM | > 100 µM | 3.3 µM | > 100 µM | 6.13 µM | > 100 µM | 49 µM | > 100 µM | 3.43 µM | > 100 µM |
| O=C1CC2OCC=C3CN4CCC56c7ccccc7N1C5C2C3CC46 (configuration not stated) (tested in a mixture with another compound) | > 50 µg/mL | > 50 µg/mL | > 50 µg/mL | > 50 µg/mL | > 50 µg/mL | > 50 µg/mL | > 50 µg/mL | > 50 µg/mL | > 50 µg/mL | > 50 µg/mL | > 50 µg/mL | > 50 µg/mL | 11.5 µg/mL | 24.9 µg/mL | > 50 µg/mL | > 50 µg/mL | > 50 µg/mL | > 50 µg/mL | > 50 µg/mL | > 50 µg/mL |
| COc1cc2c3c(n(CCCN4CCN(CCO)CC4)c(=O)c2cc1OC)-c1cc2c(cc1C3=O)OCO2 | 8.54 µM | > 44.4 µM | 2.35 µM | 12.3 µM |  |  | 1.14 µM | 7.79 µM | > 100 µM | > 100 µM | 3.06 µM | 15.9 µM | 0.0899 µM | 6.24 µM | 9.87 µM | 31.7 µM | 15.5 µM | 37 µM |  | > 33.9 µM |
| COc1ccc(OC)c(/C=C/C(=O)c2ccc3cc(OC)ccc3c2)c1 |  | > 32.9 µM | 7.01 µM | > 37.4 µM | > 12.3 µM | > 50 µM | > 15 µM | > 50 µM | > 33.3 µM | > 50 µM |  |  | 7.74 µM | 26.1 µM | 1.78 µM | 4.53 µM | 3.84 µM | > 50 µM | 5.52 µM | > 12.2 µM |
| C=C1C(OCCO)OC2O[C@]3(C)CCC4[C@H](C)CCC1C24OO3 (some centres not stated) | 31.4 µM | > 100 µM | 10.8 µM | 71.2 µM | 23.2 µM | > 100 µM | 8.69 µM | > 100 µM | 19.9 µM | > 100 µM | 7.54 µM | > 100 µM | 1.96 µM | 27.9 µM |  |  |  |  | 42.7 µM | > 100 µM |
| NC(N)=N/N=C/c1ccc(Br)cc1 | 7.2 µM | 20.1 µM | 5.64 µM | 16.7 µM |  |  | 4.02 µM | 15.8 µM | 3.33 µM | 10.2 µM | 3.03 µM | 11.3 µM | 3.98 µM | > 100 µM | 1.6 µM | 5.76 µM | 7.44 µM | 21.3 µM | 5.36 µM | 17.8 µM |
| COc1cc[nH]c1/C=C1\C(=O)Nc2ccc([N+](=O)[O-])c(N3CC[C@@H](O)C3)c21 | 0.0804 µM | 2 µM | 0.328 µM | 1.59 µM |  |  | 0.0759 µM | 25 µM | 0.353 µM | 6.33 µM | 0.209 µM | 1.56 µM | 0.142 µM | 2.4 µM | 0.0931 µM | 0.989 µM | 0.512 µM | 1.61 µM | 0.338 µM | 0.762 µM |
| CCCNC(=O)Nc1ccc2c(c1)Cc1cc(N(CCCl)CCCl)ccc1-2 |  | 33.8 µM |  | 85 µM |  | 77.4 µM |  | > 100 µM |  | 61.4 µM |  | 17.8 µM |  |  |  |  |  | > 100 µM |  | > 100 µM |
| NCCNc1ncnc2ccc(Cl)cc12 |  | > 100 µM |  | > 100 µM |  | > 100 µM |  | > 100 µM |  | > 100 µM |  | > 100 µM |  |  |  | > 100 µM |  | > 100 µM |  | > 100 µM |
| CNCC1CCn2c(c(C3=C(c4cn(C)c5ccccc45)C(=O)NC3=O)c3ccccc32)C1 (configuration not stated) | 3.62 µM | 13.1 µM | 4.36 µM | 10.9 µM |  |  | 1.82 µM | 5.56 µM | 2.9 µM | 8.7 µM | 2.79 µM | 8.18 µM | 1.87 µM | 8.74 µM | 0.972 µM | 4.66 µM | 2.78 µM | 6.34 µM | 3.16 µM | 6.48 µM |
| CCCCCCCCCCCCCCCC(N)c1ccccc1 (configuration not stated) | 1.79 µM | 3.34 µM | 1.63 µM | 3.11 µM | 1.59 µM | 3.01 µM |  |  | 2.02 µM | 4.64 µM | 1.66 µM | 3.32 µM | 1.58 µM | 3.42 µM | 1.27 µM | 2.88 µM | 1.61 µM | 3.1 µM | 1.66 µM | 3.21 µM |
| O=C(Nc1ccc(N2CCNCC2)cn1)c1[nH]ncc1Nc1ncnc2sc3c(c12)CCC3 |  |  | 14.1 µM | 38.6 µM | 1.99 µM | 5.77 µM | 0.542 µM | 2.18 µM | 3.38 µM | 14.6 µM |  |  | 2.54 µM | 19.8 µM | 1.6 µM | 4.04 µM | 1.77 µM | 3.36 µM | 1.98 µM | 4.2 µM |
| CCC(=O)OCN1C(=O)C=CC1=O | 15.1 µM | 28.5 µM and 19.7 µM |  | 33.3 µM and 34.4 µM | 16.8 µM | 32.4 µM and 42.5 µM | 11.8 µM | 25.8 µM and 29.9 µM | 27.8 µM | 73.3 µM and 36.5 µM |  | 40.8 µM and 35.9 µM | 3.32 µM |  |  |  | 15.6 µM | 29.3 µM and 18.4 µM |  | 31.8 µM and 30.7 µM |
